Measurements: patent publication US6821289B2, “Efficacy and safety of photodynamic therapy by multiple application protocols with photosensitizers that show extended tumor retention” (CeramOptec Industries, Inc., priority 2003, dated 2004)

Experiments:
pancreatic tumor = settings: rats, cited from earlier work
[1] = tested on: xenografted human pancreatic tumor; settings: cited from earlier work
pancreas carcinoma = experiment: PDT of a pancreas carcinoma, four intravenous administrations (Example 1); type: in vivo; settings: 100-200 J/cm^2 at approximately 100 mW/cm^2
Procedure: A formulation of the PS pheophorbide a is administered intravenously 4 times as described above, with doses ranging from approximately 2 to 20 mg of PS per kilogram of body weight, achieving an at least a 50:1 ratio of PS content in the carcinoma to the PS content in the surrounding healthy pancreatic tissue. Light guiding fibres are placed within the tumor under imaging guidance. The tumor is irradiated with an energy density sufficient to necrotize the diseased tissue, preferably 100-200 J/cm^2, at a power density of approximately 100 mW/cm^2.

tumor [2] = experiment: PS concentration over time in tumor and normal tissue during repetitive administration of pheophorbide a (FIG. 1); type: in vivo
Procedure: FIG. 1 Graphic representation of PS concentration over time in tumor and normal tissue, for example the skin, during repetitive administration of pheophorbide a.
FIG. 1 illustrates preferred intervals between administration of doses of pheophorbide a in cancerous tissue. As is shown in the figure, upon a first administration the concentration of pheophorbide a is initially high and slowly decreases. The concentration in healthy tissue quickly decreases and levels off, where at 24 hours the concentration in healthy tissue is very low and has reached a point where the concentration decreases very slowly. After the first 24 hour interval, the concentration in the tumor is 17 times that in healthy cells. The same effect is observed after the second administration of pheophorbide a. As a result, after a total of four administrations and a total time of 96 hours, the concentration of pheophorbide a in healthy tissues remains very small, and the concentration in the tumor is greater by a factor of 68.

rat pituitary tumor = settings: cited from earlier work
[3] = tested on: chemically induced rat skin tumor; settings: cited from earlier work
tumor [4] = settings: mice; cited from earlier work

effect on surrounding tissue upon irradiation (pancreas carcinoma) | concentration in tumor relative to healthy tissues (tumor [2]; after four administrations, total time 96 hours) [factor] | concentration in tumor relative to healthy cells (tumor [2]; after the first 24 hour interval, one administration) [times] | Compound | time at which pheophorbide a content of normal pancreas reached a low constant value (pancreatic tumor; normal pancreas) [h] | time for which content of pancreatic tumor remained elevated (pancreatic tumor; pancreatic tumor) | time at which PS content of normal skin reached a low basal value ([1]; nude mice normal skin) [h] | change of pheophorbide a content of tumor ([1]; xenografted human pancreatic tumor in nude mice, between 4 and 48 hours after administration) | time at which content of normal pituitary gland reached a basal value (rat pituitary tumor; rat normal pituitary gland) [h] | change of pheophorbide a content of tumor (rat pituitary tumor; rat pituitary tumor, during 6 hours after administration) | time for which pheophorbide a content remained high in tumor ([3]; chemically induced rat skin tumor, after administration) | time at which pheophorbide a content of normal skin reached a basal value ([3]; rat normal skin, after administration) [h] | basal normal skin content as fraction of tumor pheophorbide a content ([3]; rat, 24 hours after administration) | change in concentration in plasma, single versus double injections (tumor [4]) | relative concentration in skin and tumor tissue, single versus double injections (tumor [4])
remains intact | 68 | 17 | pheophorbide a | 24 | at least 48 hours | 24 | did not decrease | 4 | decreased slowly | up to 48 hours | ≤ 24 | one tenth | – | –
– | – | – | Oc1cccc(-c2c3nc(c(-c4cccc(O)c4)c4ccc([nH]4)c(-c4cccc(O)c4)c4nc(c(-c5cccc(O)c5)c5ccc2[nH]5)CC4)C=C3)c1 [Foscan, meta-tetrahydroxyphenylchlorin] | – | – | – | – | – | – | – | – | – | not significantly different | nor was the relative concentration in skin and tumor tissue significantly different
